Measurements as given in US5523223A, “Ketoester reductase for conversion of keto acid esters to optically active hydroxy acid esters” (priority 1992, dated 1996).

Key:
KERed from Y. cellobiosa = assay: Screening of crude extract for ketoester reductase activity (photometric NAD(P)H decrease); format: biochemical, Yarrowinia cellobiosa; conditions: 8 mM ketoester, TEA-NaOH buffer pH 7, mU/mg protein; for NADH dependent specific activity: 0.2 mM NADH; for NADPH-dependent specific activity: 0.2 mM NADPH
Protocol: (§1) For screening collection strains of the DSM (German Collection of Microorganisms and Cell Cultures, Braunschweig) is cultured in the DSM recommended medium, the cell mass is harvested by centrifugation and disintegrated by wet milling. A permanent deposit of Candida parapsilosis DSM 70125 has been deposited on 29 Mar. 1979 in accordance with the requirements of the Budapest Treaty. The address of the depository is as follows: German Collection of Microorganisms and Cell Cultures, DSM-Mascheroder Weg 1B, Braunschweig, Germany. The supernatant served as the enzyme source (crude extract) and was investigated for ketoester reductase activity. The test was carried out photometrically and the test mixture contained the following components.
(§2) 0.1M triethanoleamine (TEA)-NaOH-Buffer, pH 7
(§3) Limited amounts of the crude extract.
(§4) The NAD(P)H-decrease at 334nm over a period of 1 minute was followed: For activity calculation, an absorption coefficient of […] was used. […] One U (unit) corresponds to the consumption and conversion of 1 μmole of reduced coenzyme per minute.

[1] = test system: KERed from Candida parapsilosis; assay: Kinetic characterization of the KERed; format: biochemical; conditions: partially purified enzyme; for Vmax: referred to 2-butanone
[2] = test system: KERed from P. acidovorans; assay: Screening of crude extract for ketoester reductase activity (photometric NAD(P)H decrease); format: biochemical, Pseudomonas acidovorans; conditions: 8 mM ketoester, TEA-NaOH buffer pH 7, mU/mg protein; for NADH dependent specific activity: 0.2 mM NADH
Protocol: as §1, §2, §3, §4

[3] = test system: KERed from R. erythropolis; assay: as above; format: biochemical, Rhodococcus erythropolis; conditions: 0.2 mM NADH, 8 mM ketoester, TEA-NaOH buffer pH 7, mU/mg protein
Protocol: as §1, §2, §3, §4

[4] = test system: KERed from C. parapsilosis; assay: as above; format: biochemical, Candida parapsilosis; conditions: 8 mM ketoester, TEA-NaOH buffer pH 7, mU/mg protein; for NADH dependent specific activity: 0.2 mM NADH; for NADPH-dependent specific activity: 0.2 mM NADPH
Protocol: as §1, §2, §3, §4

CCOC(=O)CCC(C)=O [LSEE, levulinic acid ethyl ester]
NADH dependent specific activity (KERed from Y. cellobiosa): 41.1 mU/mg | NADPH-dependent specific activity (KERed from Y. cellobiosa): 4.0 mU/mg | Km [1]: 1730 µM | Vmax [1]: 12% | NADH dependent specific activity [2]: 4.1 mU/mg | NADH dependent specific activity [3]: 87.1 mU/mg | NADH dependent specific activity [4]: 85.1 mU/mg | NADPH-dependent specific activity [4]: 1.3 mU/mg

CCOC(=O)CC(C)=O [AEEE, acetoacetic acid ethyl ester]
NADH dependent specific activity (KERed from Y. cellobiosa): 103.1 mU/mg | NADPH-dependent specific activity (KERed from Y. cellobiosa): 5.0 mU/mg | Km [1]: 122 µM | Vmax [1]: 79% | NADH dependent specific activity [2]: 49.0 mU/mg | NADH dependent specific activity [3]: 153.0 mU/mg

CCCC(=O)CC(=O)OCC [BEEE, butyrylacetic acid ethy ester]
NADH dependent specific activity (KERed from Y. cellobiosa): 20.3 mU/mg | Km [1]: 1300 µM | Vmax [1]: 5% | NADH dependent specific activity [2]: 11.6 mU/mg | NADPH-dependent specific activity ([2]; 0.2 mM NADPH): 15.6 mU/mg | NADH dependent specific activity [3]: 3.0 mU/mg | NADH dependent specific activity [4]: 49.0 mU/mg | NADPH-dependent specific activity [4]: 25.0 mU/mg
